Marks after values point to notes of the source that are not given here.
Tests used:
Format in all cases: biochemical
[1] = target: T1, hAChE (Homo sapiens, UniProt P22303); assay: Cholinesterase assay (Ellman), hAChE; conditions: 30 min pre-incubation, read-out: Residual activity [%] ± SD, hAChE
T1 construct: gift of Xavier Brazzolotto, Florian Nachon and José Dias (IRBA, Brétigny-sur-Orge, France)
Protocol: The activity of the compounds against ChEs, namely hAChE and hBChE, was determined by the Ellman method. 5,5′-Dithiobis-2-nitrobenzoic acid (Ellman’s reagent; DTNB), butyrylthiocholine iodide, and acetylthiocholine iodides were from Sigma-Aldrich. Recombinant hAChE and hBChE were kindly provided by Xavier Brazzolotto, Florian Nachon, and José Dias (IRBA, Brétigny-sur-Orge, France). Reactions were performed in a final volume of 300 µL of 0.1 M phosphate-buffered solution, pH = 8.0, containing 370 µM DTNB, 500 μM butyrylthiocholine/acetylthiocholine iodide, and approximately 1 nM or 50–100 pM hBChE or hAChE, respectively. The reactions were started by the addition of the substrate after 30-min pre-incubation at room temperature. The final organic solvent (DMSO) content was always 1%. The formation of the yellow 5-thio-2-nitrobenzoate anion was monitored for 2 min at 412 nm, using a 96-well microplate reader (Synergy HT, BioTek Instruments, Inc., Santa Clara, CA, USA). The initial velocities in the presence (vi) and absence (vo) of the test compounds were calculated. Inhibitory potencies were expressed as residual activities (RA), according to the equation RA = (vi − b)/(vo − b), where b is the blank value.

[2] = target: T2, β1 subunit of human cCP (Homo sapiens, UniProt P28072+Q99436); assay: Inhibition of β1 activity (RA, IC50), Ac-nLPnLD-AMC; conditions: PA28α; for IC50: 30 min pre-incubation
T2 construct: purchased Boston Biochem, Inc., Cambridge, MA, USA
Protocol: (§1) Residual activity measurements were performed at 10 μM final concentrations in the assay buffer (0.01% SDS, 50 mM Tris-HCl, 0.5 mM EDTA, pH 7.4). Stock solutions of the compounds were prepared in DMSO. To 50 μL of each compound in buffer, 25 μL of 0.8 nM human iCP or human cCP (both from Boston Biochem, Inc., Cambridge, MA, USA) were added. After incubation at 37 °C for 30 min, the reaction was started by adding of 25 μL of 100 μM relevant fluorogenic substrate: acetyl-Nle-Pro-Nle-Asp-AMC (Ac-nLPnLD-AMC, (Bachem, Bubendorf, Switzerland)) for β1, acetyl-Pro-Ala-Leu-7-amino-4-methylcoumarin (Ac-PAL-AMC, (Boston Biochem, Inc., Cambridge, MA, USA)) for β1i, t-butyloxycarbonyl-Leu-Arg-Arg-7-amino-4-methylcoumarin (Boc-LRR-AMC, (Bachem, Bubendorf, Switzerland)) for β2 and β2i, succinyl-Leu-Leu-Val-Tyr-7-amino-4-methylcoumarin (Suc-LLVY-AMC) (Bachem, Bubendorf, Switzerland) for β5 and β5i. Reaction progress was recorded on BioTek Synergy HT microplate reader by monitoring fluorescence at 460 nm (λex = 360 nm) for 90 min at 37 °C. The initial linear ranges were used to calculate velocity and determine residual activity. In the case of evaluation of β1, βi, β2, and β2i activities, the assay buffer was modified by replacing SDS with the proteasomal activator PA28α (Boston Biochem, Inc., Cambridge, MA, USA).
(§2) Final assay mixtures contained 0.2 nM human iCP or 0.2 nM human cCP in assay buffer (0.01% SDS (or PA28α in cases of β1, β1i subunits), 50 mM Tris-HCl, 0.5 mM EDTA, pH 7.4). Inhibitors were dissolved in DMSO and added to the black 96-well plates for at least eight different concentrations (the final concentration of DMSO was not more than 1%). After 30 min of incubation at 37 °C, the reaction was started by adding the substrate Suc-LLVY-AMC (for β5 and β5i) or Ac-nLPnLD-AMC (for β1) or Ac-PAL-AMC (for β1i). Fluorescence was monitored at 460 nm (λex = 360 nm) for 90 min at 37 °C. The progress of the reactions was recorded and the initial linear ranges were used to calculate the velocity. IC50 values were calculated using GraphPadPrism (GraphPad Software, San Diego, CA, USA) and are means from at least three independent determinations.

[3] = target: T3, β2i subunit of human iCP (Homo sapiens, UniProt P40306+P49720); assay: Residual β2i activity, Boc-LRR-AMC; conditions: 10 µM, PA28α
T3 construct: purchased Boston Biochem, Inc., Cambridge, MA, USA
Protocol: as §1

[4] = target: T4, β5 subunit of human cCP (Homo sapiens, UniProt P20618+P28074); assay: Inhibition of β5 activity (RA, IC50), Suc-LLVY-AMC; conditions: 30 min pre-incubation, SDS
T4 construct: purchased Boston Biochem, Inc., Cambridge, MA, USA
Protocol: as §1, §2

[5] = target: T5, hMAO-A (Homo sapiens, UniProt P21397); assay: Monoamine oxidase assay, hMAO-A; conditions: 30 min pre-incubation, read-out: Residual activity [%] ± SD, hMAO-A
T5 construct: purchased Sigma Aldrich; host or cells: BTI-TN-5B1-4 insect cells
T5 sequence (P21397 1-527): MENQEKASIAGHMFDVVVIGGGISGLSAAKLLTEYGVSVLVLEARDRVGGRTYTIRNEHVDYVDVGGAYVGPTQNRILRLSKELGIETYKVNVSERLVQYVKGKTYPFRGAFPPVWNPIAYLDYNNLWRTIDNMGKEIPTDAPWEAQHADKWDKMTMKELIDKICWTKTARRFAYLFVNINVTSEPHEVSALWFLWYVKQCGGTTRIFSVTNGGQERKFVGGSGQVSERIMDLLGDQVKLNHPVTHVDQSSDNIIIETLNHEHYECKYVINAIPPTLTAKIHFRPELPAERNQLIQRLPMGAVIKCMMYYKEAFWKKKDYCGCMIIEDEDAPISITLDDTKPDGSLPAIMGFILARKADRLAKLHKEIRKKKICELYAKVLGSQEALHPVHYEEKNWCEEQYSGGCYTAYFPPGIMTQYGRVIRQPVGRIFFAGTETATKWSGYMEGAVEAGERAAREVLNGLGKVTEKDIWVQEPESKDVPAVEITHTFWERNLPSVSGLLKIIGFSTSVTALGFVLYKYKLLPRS
Protocol: The effects of the test compounds on hMAO were investigated using fluorimetric assay. Recombinant hMAO-A and hMAO-B, expressed in BTI-TN-5B1-4 insect cells, horseradish peroxidase type II and p-tyramine hydrochloride were purchased from Sigma Aldrich. Amplex Red was synthesized as previously described.
Briefly, 50 mM sodium phosphate buffer (pH = 7.4, 0.05 vol.% Triton X-114) containing the compounds or the reference inhibitors and hMAO were incubated at 37 °C for 30 min. The reaction was started by adding Amplex Red (final concentration, 250 µM), horseradish peroxidase (final activity, 1 U/mL), and p-tyramine (final concentration, 1 mM). The increase in fluorescence (λex = 530 nm, λem = 590 nm) was monitored for 30 min at 37 °C. DMSO at a concentration of 1.5% (v/v) was used for the control experiments. For the determination of blank (b), the enzyme was replaced by phosphate-buffered solution. Each measurement was performed in duplicate. Inhibitory potencies were expressed as residual activities (RA), as described under the Cholinesterase assay section.

T1 sequence (P22303 32-614): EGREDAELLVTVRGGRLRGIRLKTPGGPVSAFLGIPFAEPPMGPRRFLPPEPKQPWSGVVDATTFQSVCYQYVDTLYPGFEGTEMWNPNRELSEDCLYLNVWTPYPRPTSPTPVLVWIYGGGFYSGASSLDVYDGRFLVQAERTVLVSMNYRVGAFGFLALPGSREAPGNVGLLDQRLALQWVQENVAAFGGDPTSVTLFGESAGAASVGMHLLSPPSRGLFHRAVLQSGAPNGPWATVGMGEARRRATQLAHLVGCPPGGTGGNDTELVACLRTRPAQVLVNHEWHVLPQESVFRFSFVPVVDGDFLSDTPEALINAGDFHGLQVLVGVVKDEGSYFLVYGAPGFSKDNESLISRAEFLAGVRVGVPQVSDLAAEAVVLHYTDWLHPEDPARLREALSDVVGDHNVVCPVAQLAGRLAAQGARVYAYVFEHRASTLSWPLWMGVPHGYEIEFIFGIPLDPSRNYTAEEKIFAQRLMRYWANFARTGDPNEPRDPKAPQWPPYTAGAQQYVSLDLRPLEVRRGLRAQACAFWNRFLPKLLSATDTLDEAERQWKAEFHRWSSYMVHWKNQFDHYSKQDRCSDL

Row | SMILES | remaining activity at 100 µM [1] [%] | β1 (RA [%]) ([2]; 10 µM, Table 3) [%] | β2i (RA [%]) ([3]; Table 3) | β5 (RA [%]) at 10 µM [4] [% ^c] | remaining activity at 100 µM [5] [%] | remaining activity at 10 µM ([2]; 10 µM, Table 3) [%] | IC50 [4] [µM] | IC50 [2] [µM] | β2i (RA [%]) ([3]; Table 6)
1 | COc1cccc2oc(C#N)nc12 [Compound 6] | > 50 | 82 | NA (NA, Not active (RA above 90%)) | 63 | 27 |  |  |  | 
2 | N#Cc1nc2c(O)cccc2o1 [Compound 10] | 27 ± 2 |  | NA (NA, Not active (RA above 90%)) |  | 38 ± 2 | > 90 | 30 ± 12 |  | 
3 | N#Cc1nc2cc(O)ccc2o1 [Compound 11] | 27 ± 1 |  | NA (NA, Not active (RA above 90%)) | 53 | 26 | > 90 |  |  | 
4 | N#Cc1nc2cccc(O)c2o1 [Compound 13] | 25 ± 1 |  | 83% |  | 48 ± 1 | 76 | 11 ± 9 |  | 
5 | CC(=O)Oc1cccc2oc(C#N)nc12 [Compound 14] | 11 ± 2 |  | NA (NA, Not active (RA above 90%)) | 56 | 34 | > 90 |  |  | 
6 | CC(=O)Oc1ccc2oc(C#N)nc2c1 [Compound 15] | 33 ± 2 |  | NA (NA, Not active (RA above 90%)) | 55 | 16 | > 90 |  |  | 
7 | C=Cc1nc(CC(=O)N[C@@H](CC(C)C)B2O[C@@H]3C[C@@H]4C[C@@H](C4(C)C)[C@]3(C)O2)cs1 [Compound 28] | > 50 |  |  |  | 42 |  | 8.2 | 4.8 ± 0.2 | NA (NA, Not active (RA above 95%))
8 | CC(C)C[C@H](NC(=O)CCn1c(C#N)nc2ccccc21)B1O[C@@H]2C[C@@H]3C[C@@H](C3(C)C)[C@]2(C)O1 [Compound 30] | > 50 |  |  |  | > 50 |  | 0.7 ± 0.1 | 0.4 | NA (NA, Not active (RA above 95%))
9 | CC(C)C[C@H](NC(=O)CCCn1c(C#N)nc2ccccc21)B1O[C@@H]2C[C@@H]3C[C@@H](C3(C)C)[C@]2(C)O1 [Compound 31] | > 50 |  |  |  | 24 |  | 13 ± 4 | 8.4 ± 1.6 | NA (NA, Not active (RA above 95%))
10 | CC(C)C[C@H](NC(=O)CCn1c(C#N)nc2ccccc21)B(O)O [Compound 34] | > 50 |  |  |  | > 50 |  | 1.8 ± 0.4 | 3.2 ± 0.2 | NA (NA, Not active (RA above 95%))
11 | CC(C)C[C@H](NC(=O)CCCn1c(C#N)nc2ccccc21)B(O)O [Compound 35] | > 50 |  |  |  | > 50 |  | 16 ± 8 | 13 ± 2 | NA (NA, Not active (RA above 95%))
12 | CC(C)C[C@H](NC(=O)CCn1c(C#N)nc2cccc(Cl)c21)B1O[C@@H]2C[C@@H]3C[C@@H](C3(C)C)[C@]2(C)O1 [Compound 38] | > 50 |  |  |  | 24 ± 1 |  | 2 ± 0.7 | 5 ± 0.1 | NA (NA, Not active (RA above 95%))
13 | CC(C)C[C@H](NC(=O)Cc1ccc2oc(C#N)nc2c1)B1O[C@@H]2C[C@@H]3C[C@@H](C3(C)C)[C@]2(C)O1 [Compound 39] | > 50 |  |  |  | 42 |  | 3.6 ± 1.1 | 2.9 ± 0.4 | NA (NA, Not active (RA above 95%))
14 | CC(C)C[C@H](NC(=O)Cc1ccc2oc(C#N)nc2c1)B(O)O [Compound 40] | 46 ± 1 |  |  |  | 36 |  | 2 ± 0.7 | 3.7 ± 0.9 | NA (NA, Not active (RA above 95%))
